Data taken from ChEMBL document CHEMBL3045245, “Synthesis and antitumor activities of certain novel 2-amino-9-(4-halostyryl)-4H-pyrano[3,2-h]quinoline derivatives” (Med Chem Res, 2012).
Values after ≈ are worked out from the molar mass of the structure shown.

Tested on: HepG2
Assay: Cytotoxicity against Homo sapiens (human) HepG2 cells after 48 hr by MTT assay
Format: functional, cell-based
Conditions: HepG2, 48 h

Row | Structure (SMILES) | IC50
1 | N#CC1=C(N)Oc2c(ccc3ccc(/C=C/c4ccc(Cl)cc4)nc23)C1c1ccc(Br)cc1 (configuration not stated) | 23.2 µg/mL (≈ 45.1 µM)
2 | N#CC1=C(N)Oc2c(ccc3ccc(/C=C/c4ccc(Br)cc4)nc23)C1c1ccc(Br)cc1 (configuration not stated) | 8.7 µg/mL (≈ 15.6 µM)

Tested on: HepG2
Assay: Cytotoxicity against Homo sapiens (human) HepG2 cells assessed as cell viability at 1.56 ug/ml after 48 hr by MTT assay
Format: functional
Conditions: HepG2, 48 h, read-out: Activity

Row | Structure (SMILES) | viability at 1.56 µg/mL
3 | N#CC1=C(N)Oc2c(ccc3ccc(/C=C/c4ccc(Cl)cc4)nc23)C1c1ccc(Br)cc1 (configuration not stated) | 94.6%
4 | N#CC1=C(N)Oc2c(ccc3ccc(/C=C/c4ccc(Br)cc4)nc23)C1c1ccc(Br)cc1 (configuration not stated) | 74.3%

Tested on: HepG2
Assay: Cytotoxicity against Homo sapiens (human) HepG2 cells assessed as cell viability at 6.25 ug/ml after 48 hr by MTT assay
Format: functional
Conditions: HepG2, 48 h, read-out: Activity

Row | Structure (SMILES) | viability at 6.25 µg/mL
5 | N#CC1=C(N)Oc2c(ccc3ccc(/C=C/c4ccc(Cl)cc4)nc23)C1c1ccc(Br)cc1 (configuration not stated) | 77.2%
6 | N#CC1=C(N)Oc2c(ccc3ccc(/C=C/c4ccc(Br)cc4)nc23)C1c1ccc(Br)cc1 (configuration not stated) | 41.4%

Tested on: HepG2
Assay: Cytotoxicity against Homo sapiens (human) HepG2 cells assessed as cell viability at 3.125 ug/ml after 48 hr by MTT assay
Format: functional
Conditions: HepG2, 48 h, read-out: Activity

Row | Structure (SMILES) | viability at 3.125 µg/mL
7 | N#CC1=C(N)Oc2c(ccc3ccc(/C=C/c4ccc(Cl)cc4)nc23)C1c1ccc(Br)cc1 (configuration not stated) | 87.9%
8 | N#CC1=C(N)Oc2c(ccc3ccc(/C=C/c4ccc(Br)cc4)nc23)C1c1ccc(Br)cc1 (configuration not stated) | 54.8%

Tested on: HepG2
Assay: Cytotoxicity against Homo sapiens (human) HepG2 cells assessed as cell viability at 25 ug/ml after 48 hr by MTT assay
Format: functional
Conditions: HepG2, 48 h, read-out: Activity

Row | Structure (SMILES) | viability at 25 µg/mL
9 | N#CC1=C(N)Oc2c(ccc3ccc(/C=C/c4ccc(Cl)cc4)nc23)C1c1ccc(Br)cc1 (configuration not stated) | 44.9%
10 | N#CC1=C(N)Oc2c(ccc3ccc(/C=C/c4ccc(Br)cc4)nc23)C1c1ccc(Br)cc1 (configuration not stated) | 25.7%

Tested on: HepG2
Assay: Cytotoxicity against Homo sapiens (human) HepG2 cells assessed as cell viability at 12.5 ug/ml after 48 hr by MTT assay
Format: functional
Conditions: HepG2, 48 h, read-out: Activity

Row | Structure (SMILES) | viability at 12.5 µg/mL
11 | N#CC1=C(N)Oc2c(ccc3ccc(/C=C/c4ccc(Cl)cc4)nc23)C1c1ccc(Br)cc1 (configuration not stated) | 69.6%
12 | N#CC1=C(N)Oc2c(ccc3ccc(/C=C/c4ccc(Br)cc4)nc23)C1c1ccc(Br)cc1 (configuration not stated) | 34.1%

Tested on: not listed separately
Assay: Cytotoxicity against Homo sapiens (human) HCT cells after 48 hr by MTT assay
Format: functional, cell-based
Conditions: not given

Row | Structure (SMILES) | IC50
13 | N#CC1=C(N)Oc2c(ccc3ccc(/C=C/c4ccc(Cl)cc4)nc23)C1c1ccc(Br)cc1 (configuration not stated) | 11.9 µg/mL (≈ 23.1 µM)
14 | N#CC1=C(N)Oc2c(ccc3ccc(/C=C/c4ccc(Br)cc4)nc23)C1c1ccc(Br)cc1 (configuration not stated) | 12.7 µg/mL (≈ 22.7 µM)

Tested on: HepG2
Assay: Cytotoxicity against Homo sapiens (human) HepG2 cells assessed as cell viability at 50 ug/ml after 48 hr by MTT assay
Format: functional
Conditions: HepG2, 48 h, read-out: Activity

Row | Structure (SMILES) | viability at 50 µg/mL
15 | N#CC1=C(N)Oc2c(ccc3ccc(/C=C/c4ccc(Cl)cc4)nc23)C1c1ccc(Br)cc1 (configuration not stated) | 33.8%
16 | N#CC1=C(N)Oc2c(ccc3ccc(/C=C/c4ccc(Br)cc4)nc23)C1c1ccc(Br)cc1 (configuration not stated) | 16%

Tested on: not listed separately
Assay: Cytotoxicity against Homo sapiens (human) HCT cells assessed as cell viability at 1.56 ug/ml after 48 hr by MTT assay
Format: functional
Conditions: read-out: Activity

Row | Structure (SMILES) | viability at 1.56 µg/mL
17 | N#CC1=C(N)Oc2c(ccc3ccc(/C=C/c4ccc(Cl)cc4)nc23)C1c1ccc(Br)cc1 (configuration not stated) | 80.4%
18 | N#CC1=C(N)Oc2c(ccc3ccc(/C=C/c4ccc(Br)cc4)nc23)C1c1ccc(Br)cc1 (configuration not stated) | 95.7%

Tested on: not listed separately
Assay: Cytotoxicity against Homo sapiens (human) HCT cells assessed as cell viability at 3.125 ug/ml after 48 hr by MTT assay
Format: functional
Conditions: read-out: Activity

Row | Structure (SMILES) | viability at 3.125 µg/mL
19 | N#CC1=C(N)Oc2c(ccc3ccc(/C=C/c4ccc(Cl)cc4)nc23)C1c1ccc(Br)cc1 (configuration not stated) | 72.5%
20 | N#CC1=C(N)Oc2c(ccc3ccc(/C=C/c4ccc(Br)cc4)nc23)C1c1ccc(Br)cc1 (configuration not stated) | 90.7%

Tested on: not listed separately
Assay: Cytotoxicity against Homo sapiens (human) HCT cells assessed as cell viability at 6.25 ug/ml after 48 hr by MTT assay
Format: functional
Conditions: read-out: Activity

Row | Structure (SMILES) | viability at 6.25 µg/mL
21 | N#CC1=C(N)Oc2c(ccc3ccc(/C=C/c4ccc(Cl)cc4)nc23)C1c1ccc(Br)cc1 (configuration not stated) | 69.8%
22 | N#CC1=C(N)Oc2c(ccc3ccc(/C=C/c4ccc(Br)cc4)nc23)C1c1ccc(Br)cc1 (configuration not stated) | 80.5%

Tested on: not listed separately
Assay: Cytotoxicity against Homo sapiens (human) HCT cells assessed as cell viability at 12.5 ug/ml after 48 hr by MTT assay
Format: functional
Conditions: read-out: Activity

Row | Structure (SMILES) | viability at 12.5 µg/mL
23 | N#CC1=C(N)Oc2c(ccc3ccc(/C=C/c4ccc(Cl)cc4)nc23)C1c1ccc(Br)cc1 (configuration not stated) | 47.8%
24 | N#CC1=C(N)Oc2c(ccc3ccc(/C=C/c4ccc(Br)cc4)nc23)C1c1ccc(Br)cc1 (configuration not stated) | 51%

Tested on: not listed separately
Assay: Cytotoxicity against Homo sapiens (human) HCT cells assessed as cell viability at 25 ug/ml after 48 hr by MTT assay
Format: functional
Conditions: read-out: Activity

Row | Structure (SMILES) | viability at 25 µg/mL
25 | N#CC1=C(N)Oc2c(ccc3ccc(/C=C/c4ccc(Cl)cc4)nc23)C1c1ccc(Br)cc1 (configuration not stated) | 34.2%
26 | N#CC1=C(N)Oc2c(ccc3ccc(/C=C/c4ccc(Br)cc4)nc23)C1c1ccc(Br)cc1 (configuration not stated) | 33.5%

Tested on: not listed separately
Assay: Cytotoxicity against Homo sapiens (human) HCT cells assessed as cell viability at 50 ug/ml after 48 hr by MTT assay
Format: functional
Conditions: read-out: Activity

Row | Structure (SMILES) | viability at 50 µg/mL
27 | N#CC1=C(N)Oc2c(ccc3ccc(/C=C/c4ccc(Cl)cc4)nc23)C1c1ccc(Br)cc1 (configuration not stated) | 27.4%
28 | N#CC1=C(N)Oc2c(ccc3ccc(/C=C/c4ccc(Br)cc4)nc23)C1c1ccc(Br)cc1 (configuration not stated) | 24%

Tested on: MCF7
Assay: Cytotoxicity against Homo sapiens (human) MCF7 cells after 48 hr by MTT assay
Format: functional, cell-based
Conditions: MCF7, 48 h

Row | Structure (SMILES) | IC50
29 | N#CC1=C(N)Oc2c(ccc3ccc(/C=C/c4ccc(Cl)cc4)nc23)C1c1ccc(Br)cc1 (configuration not stated) | 12.5 µg/mL (≈ 24.3 µM)
30 | N#CC1=C(N)Oc2c(ccc3ccc(/C=C/c4ccc(Br)cc4)nc23)C1c1ccc(Br)cc1 (configuration not stated) | 3.9 µg/mL (≈ 6.97 µM)

Tested on: MCF7
Assay: Cytotoxicity against Homo sapiens (human) MCF7 cells assessed as cell viability at 1.56 ug/ml after 48 hr by MTT assay
Format: functional
Conditions: MCF7, 48 h, read-out: Activity

Row | Structure (SMILES) | viability at 1.56 µg/mL
31 | N#CC1=C(N)Oc2c(ccc3ccc(/C=C/c4ccc(Cl)cc4)nc23)C1c1ccc(Br)cc1 (configuration not stated) | 98.5%
32 | N#CC1=C(N)Oc2c(ccc3ccc(/C=C/c4ccc(Br)cc4)nc23)C1c1ccc(Br)cc1 (configuration not stated) | 61.1%

Tested on: MCF7
Assay: Cytotoxicity against Homo sapiens (human) MCF7 cells assessed as cell viability at 3.125 ug/ml after 48 hr by MTT assay
Format: functional
Conditions: MCF7, 48 h, read-out: Activity

Row | Structure (SMILES) | viability at 3.125 µg/mL
33 | N#CC1=C(N)Oc2c(ccc3ccc(/C=C/c4ccc(Cl)cc4)nc23)C1c1ccc(Br)cc1 (configuration not stated) | 83.1%
34 | N#CC1=C(N)Oc2c(ccc3ccc(/C=C/c4ccc(Br)cc4)nc23)C1c1ccc(Br)cc1 (configuration not stated) | 53.1%

Tested on: MCF7
Assay: Cytotoxicity against Homo sapiens (human) MCF7 cells assessed as cell viability at 6.25 ug/ml after 48 hr by MTT assay
Format: functional
Conditions: MCF7, 48 h, read-out: Activity

Row | Structure (SMILES) | viability at 6.25 µg/mL
35 | N#CC1=C(N)Oc2c(ccc3ccc(/C=C/c4ccc(Cl)cc4)nc23)C1c1ccc(Br)cc1 (configuration not stated) | 61.8%
36 | N#CC1=C(N)Oc2c(ccc3ccc(/C=C/c4ccc(Br)cc4)nc23)C1c1ccc(Br)cc1 (configuration not stated) | 40.6%

Tested on: MCF7
Assay: Cytotoxicity against Homo sapiens (human) MCF7 cells assessed as cell viability at 12.5 ug/ml after 48 hr by MTT assay
Format: functional
Conditions: MCF7, 48 h, read-out: Activity

Row | Structure (SMILES) | viability at 12.5 µg/mL
37 | N#CC1=C(N)Oc2c(ccc3ccc(/C=C/c4ccc(Cl)cc4)nc23)C1c1ccc(Br)cc1 (configuration not stated) | 50.3%
38 | N#CC1=C(N)Oc2c(ccc3ccc(/C=C/c4ccc(Br)cc4)nc23)C1c1ccc(Br)cc1 (configuration not stated) | 31.7%

Tested on: MCF7
Assay: Cytotoxicity against Homo sapiens (human) MCF7 cells assessed as cell viability at 25 ug/ml after 48 hr by MTT assay
Format: functional
Conditions: MCF7, 48 h, read-out: Activity

Row | Structure (SMILES) | viability at 25 µg/mL
39 | N#CC1=C(N)Oc2c(ccc3ccc(/C=C/c4ccc(Cl)cc4)nc23)C1c1ccc(Br)cc1 (configuration not stated) | 39.9%
40 | N#CC1=C(N)Oc2c(ccc3ccc(/C=C/c4ccc(Br)cc4)nc23)C1c1ccc(Br)cc1 (configuration not stated) | 27.4%

Tested on: MCF7
Assay: Cytotoxicity against Homo sapiens (human) MCF7 cells assessed as cell viability at 50 ug/ml after 48 hr by MTT assay
Format: functional
Conditions: MCF7, 48 h, read-out: Activity

Row | Structure (SMILES) | viability at 50 µg/mL
41 | N#CC1=C(N)Oc2c(ccc3ccc(/C=C/c4ccc(Cl)cc4)nc23)C1c1ccc(Br)cc1 (configuration not stated) | 32.4%
42 | N#CC1=C(N)Oc2c(ccc3ccc(/C=C/c4ccc(Br)cc4)nc23)C1c1ccc(Br)cc1 (configuration not stated) | 22.4%
